We go through 27 compounds from patent US20070167466A1, “"Pyrazolo [4,3-d]pyrimidines, processes for their preparation and methods of use"” (priority 2003, published 2007).

Each structure is given as a SMILES string. Read-outs that look alike come from different tables or passages of the source.

Test [1] has as its target T1, CDK1 (p34^cdc2, cyclin B) (Homo sapiens, UniProt P06493).
T1 construct: made in house; host or cells: Sf9 insect cells (baculovirus co-infection)
Nature of the test: CDK inhibition assay, p34^cdc2 kinase, histone H1 phosphorylation. It is filed as biochemical. Conditions: 15 μM ATP, histone H1, 30° C. Here is the method:
The controls contain suitable dilutions of DMSO.
2-glycerolphosphate, 1 mM NaF, 1 mM DTT

The test system of test [2] is Cytokinin-dependent tobacco callus Nicotiana tabacum L. cv. Wisconsins 38. Description: Tobacco callus bioassay for cytotoxicity (herbicidal activity). Conditions: four weeks. The format is cell-based. The method, then:
The compounds to be tested were dissolved in dimethylsulfoxide (DMSO) and the solution brought up to 10^−3 M with distilled water. […] Cytokinin-dependent tobacco callus Nicotiana tabacum L. cv. […] Subcultivation was carried out every three weeks. Fourteen days before the bioassay, the callus tissue was transferred to the media without 6-benzylaminopurine. Compounds were tested with two different concentrations of 6-benzylaminopurine (10^−5 M and 10^−6 M). Inhibitory growth activity was determined from the increase in fresh callus weight after four weeks of cultivation. Five replicates were prepared for each concentration tested and the entire test was repeated at least twice.

Test [3] relates to K562 (human chronic myeloblastic leukemia). Nature of the test: In vitro cytotoxic activity, Calcein AM, three days. It is filed as cell-based. Conditions: read-out: K-562 IC50. Here is the method:
(§1) We have been using the following cell lines: HELA (human cervical carcinoma), MCF7 (human breast adenocarcinoma), NIH 3T3 (mouse fibroblasts), HOS (human osteogenic sarcoma), HL 60 (human promyelocytic leukemia), G 361 (human malignant melanoma), K562 (human chronic myeloblastic leukemia), CEM (human lymphoblastoid leukaemia). Tested drugs were added to the cell cultures in six different concentration and kept at 37° C. and 5% CO2 for three days. All cell lines were grown in DMBM medium (Gibco BRL) supplemented with 10% (v/v) fetal bovine serum and L-glutamine and maintained at 37° C. in a humidified atmosphere with 5% CO2. 10^4 cells were seeded into each well of 96 well plate, allowed to stabilize for at least 2 h and then tested compounds were added at various concentrations ranging from 200 to 0.2 μM in triplicates. Three days after drug addition Calcein AM solution (Molecular Probes) was added and let to enter the cells for 1 hour. Fluorescence of viable cells was quantified employing Fluoroskan Ascent (Microsystems).

The test system of test [4] is MCF7 (human breast adenocarcinoma). Described as above. It is filed as cell-based. Here is the method: as §1
The target of test [5] is CDK2 (p33^cdk2, cyclin E) (Homo sapiens, UniProt P24941). Nature of the test: CDK inhibition assay, p33^cdk2 kinase, histone H1 phosphorylation.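 Note: Baculovirus-expressed kinase/cyclin complex from Sf9 cell extract, 10 min at 30 °C, phosphoproteins separated by SDS gel and quantified by image analysis, activity relative to DMSO control.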
Protocol: Cyclin-dependent kinases (p34^cdc2, p33^cdk2) and cyclins (cyclin B, E) are produced in Sf9 insect cells coinfected with appropriate baculoviral constructs. The cells are harvested 68-72 hrs post infection in lysis buffer for 30 min on ice and the soluble fraction is recovered by centrifugation at 14.000 g for 10 min. The protein extract is stored at −80° C.
Lysis buffer: 50mM Tris pH 7.4, 150mM NaCl, 5 mM EDTA, 20 mM NaF, 1% Tween, 1 mM DTT, 0.1 mM PMSF, leupeptine, aprotonine.
To carry out experiments on kinetics under linear conditions, the final point test system for kinase activity measurement is used. The kinase is added to reaction mixture in such a way as to obtain linear activity with respect to the concentration of enzyme and with respect to time.
Kinase activity is determined at 30° C. in the kinase buffer.
Tested compounds are usually dissolved to 100 mM solutions in DMSO, final concentration of DMSO in reaction mixture never exceeds 1%. The controls contain suitable dilutions of DMSO.
After 10 min, addition 3×SDS sample buffer stops the incubations. Phosphorylated proteins are separated electrophoretically using 10% SDS polyacrylamide gel. The measurement of kinase activity is done using digital image analysis.
The kinase activity is expressed as a percentage of maximum activity, the apparent inhibition constants are determined by graphic analysis.
Kinase buffer: 50 mM Hepes pH 7.4, 10 mM MgCl2, 5 mM EGTA, 10 mM
Where [6] appears, read: Nicotiana tabacum, 672 h, read-out: IC50, growth of tobacco callus, 10^−5 M BAP, 10^−5 M 6-benzylaminopurine.
Setting [7] is: Nicotiana tabacum, 672 h, 10^−6 M 6-benzylaminopurine, read-out: IC50, growth of tobacco callus, 10^−6 M BAP.
[8] abbreviates: read-out: CDK2 IC50, 15 μM ATP, histone H1, 30° C.

T1 sequence (P06493 whole entry, species assumed): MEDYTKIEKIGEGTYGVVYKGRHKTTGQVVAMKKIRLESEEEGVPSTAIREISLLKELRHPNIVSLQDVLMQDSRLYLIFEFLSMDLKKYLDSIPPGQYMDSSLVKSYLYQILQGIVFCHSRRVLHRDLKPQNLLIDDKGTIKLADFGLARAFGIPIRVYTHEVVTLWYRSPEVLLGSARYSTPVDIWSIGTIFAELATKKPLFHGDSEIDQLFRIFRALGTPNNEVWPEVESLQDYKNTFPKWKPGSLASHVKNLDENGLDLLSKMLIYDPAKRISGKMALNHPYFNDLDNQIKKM
T1 sequence (P14635 whole entry partner, species assumed): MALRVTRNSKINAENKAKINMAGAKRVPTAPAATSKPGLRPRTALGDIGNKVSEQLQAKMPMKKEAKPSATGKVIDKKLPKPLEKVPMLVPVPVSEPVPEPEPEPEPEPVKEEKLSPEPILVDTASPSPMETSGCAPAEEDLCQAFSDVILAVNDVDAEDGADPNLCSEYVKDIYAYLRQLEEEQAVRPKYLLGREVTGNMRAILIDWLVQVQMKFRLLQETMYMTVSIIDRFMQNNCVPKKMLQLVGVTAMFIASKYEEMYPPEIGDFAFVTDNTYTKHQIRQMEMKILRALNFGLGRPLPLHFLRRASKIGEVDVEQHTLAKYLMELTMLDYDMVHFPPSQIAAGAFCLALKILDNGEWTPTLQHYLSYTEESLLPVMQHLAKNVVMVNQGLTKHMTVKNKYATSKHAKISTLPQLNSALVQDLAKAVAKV

As for `CC(C)c1n[nH]c2c(NCc3ccccc3Cl)ncnc12` [2-chlorobenzylamino / isopropyl], the half-maximal inhibitory concentration (IC50) in test [1] is 2.1 µM; in test [2] (setting [6]) it was 31 µM; in test [2] (setting [7]), 4.6 µM; in test [3] (Homo sapiens, K562, 72 h), 21 µM; in test [4] (Homo sapiens, MCF7, 72 h) it was 15 µM; in test [5], 2 µM.
Turning to `CC(C)c1n[nH]c2c(NCc3ccccc3O)ncnc12` [2-hydroxybenzylamino / isopropyl, 7-(2-hydroxybenzyl)amino-3-isopropylpyrazolo[4,3-d]pyrimidine], the IC50 in test [1] is 0.4 µM; in test [3] (Homo sapiens, K562, 72 h) it was 50 µM; in test [4] (Homo sapiens, MCF7, 72 h) it was 63 µM; in test [5], 0.27 µM.
For the compound `Cc1n[nH]c2c(NCc3ccccc3O)ncnc12` [2-hydroxybenzylamino / methyl], the IC50 is 4 µM in test [1]; 55 µM in test [3] (Homo sapiens, K562, 72 h); 67 µM in test [4] (Homo sapiens, MCF7, 72 h); 5.2 µM in test [5].
Consider `Cc1ccccc1CNc1ncnc2c(C(C)C)n[nH]c12` [2-methylbenzylamino / isopropyl], for which the IC50 was 2 µM in test [1]; 14 µM in test [2] (setting [6]); 4.2 µM in test [2] (setting [7]); 75 µM in test [3] (Homo sapiens, K562, 72 h); 63 µM in test [4] (Homo sapiens, MCF7, 72 h); 1.4 µM in test [5].
Take `CC(C)c1n[nH]c2c(Nc3ccc(Cl)c(N)c3)ncnc12` [3-amino-4-chloroanilino / isopropyl]: the IC50 was 2.9 µM in test [1]; 0.3 µM in test [3] (Homo sapiens, K562, 72 h); 0.2 µM in test [4] (Homo sapiens, MCF7, 72 h); 3 µM in test [5].
Take `CC(C)c1n[nH]c2c(Nc3ccc(O)c(C(=O)O)c3)ncnc12` [3-carboxy-4-hydroxyanilino / isopropyl]: the concentration for half-maximal inhibition (IC50) in test [1] was 3.1 µM; in test [3] (Homo sapiens, K562, 72 h) it was 25 µM; in test [4] (Homo sapiens, MCF7, 72 h) it was 12 µM; in test [5], 4.2 µM.
As for `CC(C)c1n[nH]c2c(Nc3ccc(N)c(Cl)c3)ncnc12` [3-chloro-4-aminoanilino / isopropyl], the IC50 in test [1] is 2.9 µM; in test [3] (Homo sapiens, K562, 72 h) it was 13 µM; in test [4] (Homo sapiens, MCF7, 72 h), 12 µM; in test [5], 3 µM.
For `CC(C)c1n[nH]c2c(Nc3ccc(C(=O)O)c(Cl)c3)ncnc12` [3-chloro-4-carboxyanilino / isopropyl] the same measures were 2.5 µM, 69 µM, 46 µM and 2.8 µM.
As for `CC(C)c1n[nH]c2c(Nc3cc(N)cc(Cl)c3)ncnc12` [3-chloro-5-aminoanilino / isopropyl], the IC50 was 6.1 µM in test [1]; 35 µM in test [3] (Homo sapiens, K562, 72 h); 29 µM in test [4] (Homo sapiens, MCF7, 72 h); 5.8 µM in test [5].
For `CCc1n[nH]c2c(Nc3cccc(Cl)c3)ncnc12` [3-chloroanilino / ethyl] the same measures were 24 µM, 28 µM, 19 µM and 18 µM.
With `CC(C)c1n[nH]c2c(NCc3cccc(Cl)c3)ncnc12` [3-chlorobenzylamino / isopropyl], the IC50 in test [1] is 8.8 µM; in test [2] (setting [6]) it was 20 µM; in test [2] (setting [7]), 1.7 µM; in test [3] (Homo sapiens, K562, 72 h), 26 µM; in test [4] (Homo sapiens, MCF7, 72 h), 24 µM; in test [5], 9.4 µM.
As for `CCc1n[nH]c2c(NCc3cccc(O)c3)ncnc12` [3-hydroxybenzylamino / ethyl], the concentration for half-maximal inhibition (IC50) in test [1] was 6 µM; in test [3] (Homo sapiens, K562, 72 h) it was 132 µM; in test [4] (Homo sapiens, MCF7, 72 h) it was 111 µM; in test [5] it was 3.2 µM.
For `Cc1n[nH]c2c(NCc3cccc(O)c3)ncnc12` [3-hydroxybenzylamino / methyl], the IC50 in test [1] is 5.5 µM; in test [3] (Homo sapiens, K562, 72 h), 143 µM; in test [4] (Homo sapiens, MCF7, 72 h), 119 µM; in test [5] it was 7.2 µM.
As to `Cc1cccc(CNc2ncnc3c(C(C)C)n[nH]c23)c1` [3-methylbenzylamino / isopropyl], the IC50 in test [1] is 2.2 µM; in test [2] (setting [6]), 26 µM; in test [2] (setting [7]), 8.5 µM; in test [3] (Homo sapiens, K562, 72 h) it was 94 µM; in test [4] (Homo sapiens, MCF7, 72 h), 76 µM; in test [5], 3.1 µM.
For `CC(C)c1n[nH]c2c(Nc3ccc(Br)cc3)ncnc12` [4-bromoanilino / isopropyl], the concentration for half-maximal inhibition (IC50) in test [1] was 1.7 µM; in test [3] (Homo sapiens, K562, 72 h), 7 µM; in test [4] (Homo sapiens, MCF7, 72 h), 5 µM; in test [5], 1.9 µM.
As to `CC(C)c1n[nH]c2c(Nc3ccc(Cl)cc3)ncnc12` [4-chloroanilino / isopropyl], the half-maximal inhibitory concentration (IC50) in test [1] is 2.1 µM; in test [3] (Homo sapiens, K562, 72 h) it was 4 µM; in test [4] (Homo sapiens, MCF7, 72 h) it was 3 µM; in test [5], 3.1 µM.
Take `CC(C)c1n[nH]c2c(NCc3ccc(Cl)cc3)ncnc12` [4-chlorobenzylamino / isopropyl]: the IC50 came out at 1.8 µM in test [1], 12.1 µM in test [2] (setting [6]), 4.7 µM in test [2] (setting [7]) and 1.1 µM in test [5].
`CC(C)c1n[nH]c2c(NCc3ccc(O)cc3)ncnc12` [4-hydroxybenzylamino / isopropyl, 7-(4-hydroxybenzyl)amino-3-isopropylpyrazolo[4,3-d]pyrimidine]: the IC50 in test [1] is 1.8 µM; in test [3] (Homo sapiens, K562, 72 h), more than 167 µM; in test [4] (Homo sapiens, MCF7, 72 h), 152 µM; in test [5], 0.2 µM.
Regarding `COc1ccc(CNc2ncnc3c(C(C)C)n[nH]c23)cc1O` [7-(3-hydroxy-4-methoxybenzyl)amino-3-isopropylpyrazolo[4,3d]pyrimidine], the 50% inhibitory concentration (IC50) is 0.9 µM in test [1], 68 µM in test [3], 45 µM in test [4] and 0.2 µM in test [5] (setting [8]).
Take `CC(C)c1n[nH]c2c(NC3CCC(N)CC3)ncnc12` (centres unmarked) [(4-aminocyclohexyl)amino / isopropyl]: the IC50 was 80 µM in test [1], 107 µM in test [3], 68 µM in test [4] and 70 µM in test [5] (setting [8]).
For the compound `Cn1cnc2c(NCc3ccccc3)nc(NCCO)nc21` [Olomoucine, reference compound], the half-maximal inhibitory concentration (IC50) was more than 50 µM in test [2] (setting [6]); more than 50 µM in test [2] (setting [7]); more than 167 µM in test [3] (Homo sapiens, K562, 72 h); 132 µM in test [4] (Homo sapiens, MCF7, 72 h).
`CCc1n[nH]c2c(NCc3ccccc3)ncnc12` [benzylamino / ethyl]: the IC50 in test [1] is 12 µM; in test [3] (Homo sapiens, K562, 72 h), 81 µM; in test [4] (Homo sapiens, MCF7, 72 h), 62 µM; in test [5], 11 µM.
The corresponding values for `CCc1n[nH]c2c(NC3CCC3)ncnc12` [cyclobutylamino / ethyl] are 27 µM, 94 µM, 82 µM and 25 µM.
On to `CC(C)c1n[nH]c2c(NC3CCC3)ncnc12` [cyclobutylamino / isopropyl], for which the 50% inhibitory concentration (IC50) in test [2] (10^−6 M 6-benzylaminopurine, read-out: IC50, growth of tobacco callus, 10^−6 M BAP) was 4.3 µM; in test [2] (read-out: IC50, growth of tobacco callus, 10^−5 M BAP, 10^−5 M 6-benzylaminopurine), 12.1 µM; in test [3], 60 µM; in test [4] it was 45 µM.
`Cc1n[nH]c2c(NC3CCC3)ncnc12` [cyclobutylamino / methyl]: the 50% inhibitory concentration (IC50) is 35 µM in test [1]; 101 µM in test [3] (Homo sapiens, K562, 72 h); 89 µM in test [4] (Homo sapiens, MCF7, 72 h); 28 µM in test [5].
In the case of `CC(C)c1n[nH]c2c(NC3CCCC3)ncnc12` [cyclopentylamino / isopropyl], the IC50 came out at 18 µM in test [1], 15.6 µM in test [2] (setting [6]), 8.4 µM in test [2] (setting [7]) and 20 µM in test [5].
Regarding `CCc1n[nH]c2c(NCc3ccco3)ncnc12` [furfurylamino / ethyl], the IC50 in test [1] is 8.2 µM; in test [3] (Homo sapiens, K562, 72 h), more than 167 µM; in test [4] (Homo sapiens, MCF7, 72 h), 135 µM; in test [5], 5.3 µM.
